Measurements: patent US9771357B2, “ALXR agonist compound” (ONO PHARMACEUTICAL CO., LTD., priority 2013, dated 2017)

Biological target: T1, ALXR (Homo sapiens, UniProt P25090)
T1 construct: expressed in transfected cells; host or cells: CHO-K1
T1 sequence (P25090 1-351): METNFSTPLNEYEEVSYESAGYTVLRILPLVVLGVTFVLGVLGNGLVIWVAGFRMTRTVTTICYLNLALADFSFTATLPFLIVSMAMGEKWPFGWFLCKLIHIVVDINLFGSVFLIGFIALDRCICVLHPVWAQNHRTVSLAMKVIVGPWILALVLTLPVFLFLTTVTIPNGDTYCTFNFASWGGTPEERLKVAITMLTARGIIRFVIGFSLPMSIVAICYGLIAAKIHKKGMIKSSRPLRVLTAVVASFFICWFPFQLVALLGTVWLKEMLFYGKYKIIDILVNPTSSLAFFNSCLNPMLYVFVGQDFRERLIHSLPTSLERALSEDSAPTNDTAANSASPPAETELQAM
Test: IP1 (Inositol Monophosphate) Assay
Assay type: cell-based
Conditions: ALXR/Gα16 expression CHO-K1 cell strain; for IP1 Concentration: compound at 3 μM, 30 minutes, medium group 293.6
Procedure: IP1 (Inositol Monophosphate) Assay
An ALXR/Gα16 expression CHO-K1 cell strain having 3×10^4 cells/100 μL was seeded on a 96-well plate using an F-12 culture medium (10% FBS, 100 μmol/L nonessential amino acid, 100 U/mL penicillin, 100 μg/mL streptomycin, 0.25 μg/mL Amphotericin B, 400 μg/mL Geneticin, and 5 μg/mL Puromycin), and cultured at 37° C. in 5% CO2 overnight. After the culture supernatant was removed, a 70-μL Basal buffer (10 mmol/L HEPES, 1 mmol/L CaCl2, 0.5 mmol/L MgCl2, 4.2 mmol/L KCl, 146 mmol/L NaCl, 5.5 mmol/L glucose, 50 mmol/L LiCl), each buffer containing one of the compounds and the reference example compound, was added. Here, as the medium group, a Basal buffer containing 1% DMSO was used. After the cell strain was further cultured at 37° C. in 5% CO2 for 30 minutes, IP1-d2 conjugate (Cisbio) and Anti-IP1 cryptate Tb conjugate (Cisbio) diluted with Lysis buffer (Cisbio) were each added in an amount of 15 μL. The culture was allowed to stand for 1 hour under shaded conditions at room temperature. Subsequently, using EnVision (PerkinElmer), measurement was performed at an excitation wavelength of 320 nm and fluorescence wavelengths of 620 nm and 665 nm, and the fluorescence ratio 665 nm/620 nm was calculated. With respect to the IP1 concentration, a calibration curve was produced using an IP1 calibrator (Cisbio) to be converted into concentration. The measured values were analyzed using XLfit (IDBS).

| SMILES | IP1 Concentration [nmol/L] | enhancement of IP1 concentration as compared with the medium group (3 μM) |
| --- | --- | --- |
| O=C(Nc1ccc(C(F)(F)F)cc1)N1CCC(c2nc(-c3cccnc3)cs2)CC1 [Example 40, 4-[4-(3-Pyridyl)-1,3-thiazol-2-yl]-N-[4-(trifluoromethyl)phenyl]-1-piperidinecarboxamide] | 789.9 |  |
| N#Cc1sc(C2CCN(C(=O)Nc3ccc(C(F)(F)F)cc3)CC2)nc1-c1ccccc1 [Example 60, 4-(5-Cyano-4-phenyl-1,3-thiazol-2-yl)-N-[4-(trifluoromethyl)phenyl]-1-piperidinecarboxamide] | 1020.9 |  |
| Cc1sc(C2(O)CCN(C(=O)Nc3ccc(C(F)(F)F)cc3)CC2)nc1-c1cccc(F)c1 [27(1), 4-[4-(3-Fluorophenyl)-5-methyl-1,3-thiazol-2-yl]-4-hydroxy-N-[4-(trifluoromethyl)phenyl]-1-piperidinecarboxamide] | 539.3 |  |
| O=C(Nc1cccnc1)N1CCC(c2nc(-c3ccccc3)cs2)CC1 [Reference Example Compound, 4-(4-Phenyl-1,3-thiazol-2-yl)-N-(3-pyridyl)-1-piperidinecarboxamide, reference compound] | 282.5 | no enhancement was seen |
| Cc1sc(C2(NS(C)(=O)=O)CCN(C(=O)Nc3ccc(C(F)(F)F)cc3)CC2)nc1-c1ccccc1 [Example 51, 4-(5-Methyl-4-phenyl-1,3-thiazol-2-yl)-4-[(methylsulfonyl)amino]-N-[4-(trifluoromethyl)phenyl]-1-piperidinecarboxamide] | 592.1 |  |
| Cc1sc(C2CCN(C(=O)Nc3ccc(C(F)(F)F)cc3)CC2)nc1-c1cccc(F)c1 [29(2)] | 853.7 |  |
